Results from patent publication US12721343B2, “Methods and uses of a mixture comprising alpha-cypermethrin and dinotefuran for controlling invertebrate pests in t” (BASF AGRO B.V., priority 2020, dated 2026).

Assays:
Assay type in all cases: in vivo
[1] = system: Southern Chinch Bug (Blissus insularis, BLISIN); assay: Field trial against Southern chinch bug, nymph counts by vacuum sampling; details: for % Control / % activity: alpha-cypermethrin 95, dinotefuran 600, combination 95 + 380 g ai/ha; for Nymph Counts (average number of Chinch bug nymphs per treatment per sample): 28 days after treatment, alpha-cypermethrin 95, dinotefuran 600, combination 95 + 380 g ai/hectare
Source text: (§1) Synergism can be described as an interaction where the combined effect of two or more compounds is greater than the sum of the individual effects of each of the compounds. The presence of a synergistic effect in terms of percent control, between two mixing partners (X and Y) can be calculated using the Colby equation (Colby, S. R., 1967, Calculating Synergistic and Antagonistic Responses in Herbicide Combinations, Weeds, 15, 20-22):
Treatments were applied in a field with a natural infestation of Southern Chinch Bugs. The experiment was conducted with four replications, utilizing 3×3 m2 plots. The application was made in 813 liters per hectare spray volume.
The treatments consisted of an untreated check, and formulations containing either alpha-cypermethrin at a use rate of 95 grams ai/hectare, dinotefuran at 600 gram ai/hectare or a combination of alpha-cypermethrin and dinotefuran at 95+380 grams ai/hectare. Direct visual counts were made of larval chinch bugs in all stages of development after being mechanically vacuumed for 20 seconds from the surface of the turf. Chinch Bug abundance was measured using a commercially available lawn vacuum/blower combination machine by covering the vacuum (intake) orifice with mesh cloth and placing the intake on randomly within the turf plot and holding suction for […]. Samples were collected from each plot in an identical manner. After the sample was collected and the vacuum turned off, the captured contents of the mesh cloth were tapped into a 5-gallon plastic bucket for ease of counting of nymphs (at any instar).
The following average numbers of chinch bug nymphs were collected per sample per treatment 28 days after the insecticide applications were made.

[2] = system: Fall armyworm (Spodoptera frugiperda, LAPHFR); assay: Golf course trial against fall armyworm, soapy water flush counts; details: for % Control / % activity: alpha-cypermethrin 95, dinotefuran 600, combination 95 + 380 g ai/ha; for Fall Armyworm worm Counts (average per treatment per sample, 1-sq-ft): 28 days after treatment, alpha-cypermethrin 95, dinotefuran 600, combination 95 + 380 g ai/hectare
Procedure: as §1
This trial was conducted at a golf course in an area planted with Hybrid bermudagrass, cv. ‘419’, with natural infestation of fall armyworm. The trial was laid out in 6 replications with each plot measuring 20×25 ft. Applications were made in a spray volume of 203 liters per hectare. The fall armyworms were about second or third instar when found. Fall armyworm density assessment was conducted as soapy water flush. About one gallon of soapy water was poured into an area marked with a 1-sq-ft PVC pipe square. Fall armyworms surfaced within 5 minutes and were counted in each 1-sq-ft area. Fall armyworm densities in a total of three squares (or 3 subsamples) were determined in each plot at each sampling data. Assessments were conducted at 28 days after treatment.

[3] = system: Masked chafer grub, Cyclocephala spp. (CYCCSP); assay: Perennial ryegrass plot trial against masked chafer grubs (seeded adults), live grub counts; details: for % Control / % activity: alpha-cypermethrin 95, dinotefuran 600, combination 95 + 380 g ai/ha; for Masked Chafer grub counts (average live grubs per treatment per sample): 4 days after treatment, alpha-cypermethrin 95, dinotefuran 600, combination 95 + 380 g ai/hectare
Procedure: as §1
The study was conducted on perennial ryegrass. Individual plots were 6 ft×6 ft and arranged in a randomized complete block design with 4 replications. Adult Cyclocephala spp. (masked chafer) were collected when active and immediately placed inside covered PVC rings on each plot. Approximately 50 adult masked chafers were added to each plot throughout the active adult stage. The rings were removed 24-36 hours after insecticide application. After the treatment, the plots were irrigated immediately with approximately 0.125″ of water. Treatments were applied in water equivalent to 813 liters/hectare. The number of live grub larvae was assessed 4 days after treatment by removing a two-foot strip of sod cut to a […] each plot (12 ft2 per plot).

[4] = system: Fall armyworm, Spodoptera frugiperda (LAPHFR); assay: Fall armyworm feeding damage on creeping bentgrass fairway; details: for % Reduction / % activity: alpha-cypermethrin 95, dinotefuran 600, combination 95 + 380 g ai/ha; for Fall Armyworm damage (%) (average feeding damage): five days after treatment, two applications, alpha-cypermethrin 95, dinotefuran 600, combination 95 + 380 g ai/hectare
Source text: as §1
A trial was established on a mature ‘L-93’ creeping bentgrass fairway. An initial application was made with a repeat application 8 days later. Fall armyworms were artificially infested at the test site eight hours after the second application. Ten living caterpillars were added to each plot and were protected within a PVC ring. Plots were rated five days after treatement for percent damage by caterpillar feeding within the ring area.

[5] = system: Sod webworm (Herpetogramma phaeopteralis, PACYPH); assay: Field trial against sod webworm, larvae counts; details: for % Control / % activity: alpha-cypermethrin 47.5, dinotefuran 600, combination 47.5 + 190 g ai/ha; for Sod Webworm Counts (average number of larvae per treatment per sample): 7 days after treatment, alpha-cypermethrin 47.5, dinotefuran 600, combination 47.5 + 190 g ai/hectare
Source text: as §1
Treatments were applied with a natural infestation of sod webworm. The experiment was conducted in four replications, utilizing 3×3 m2 plots. One application was made in 813 liters per hectare spray volume. po The treatments consisted of an untreated check, formulations of either alpha-cypermethrin at a use rate of 47.5 grams ai/hectare, dinotefuran at 600 gram ai/hectare or a combination of alpha-cypermethrin and dinotefuran at 47.5+190 grams ai/hectare.
Direct visual counts were made of sod webworm larvae in each plot 7 days after treatment.

[6] = system: Black cut worm (Agrostis ypsilon, AGROYP); assay: Field bioassay with caged black cutworm larvae on putting green; details: for % Control / % activity: alpha-cypermethrin 47.5, dinotefuran 600, combination 47.5 + 190 g ai/ha; for Black Cutworm Counts (average surviving larvae per treatment per sample, 10 larvae/plot): 19 days after treatment, alpha-cypermethrin 47.5, dinotefuran 600, combination 47.5 + 190 g ai/hectare
Procedure: as §1
The study was conducted on a creeping bentgrass/annual bluegrass putting green in a golf course. The study was a field bioassay where insect larvae were placed in cages at different intervals after applying insecticide treatments.
Applications were made to 4-foot by 6-foot plots replicated four times in 813 liter spray volume per hectare. Black cutworm (Agrostis ypsilon) larvae were caged in the turf at after the treatments were applied. Cages consisted of six-inch diameter metal cans. Two cages were inserted into each plot and five second-instar larvae were placed into each cage (total of 10 larvae/plot) before dusk. Window screen and a plastic louver were placed on top of the cages and held down with nails to secure the larvae. Larvae were caged for four days (96 hours) then a disclosing solution of 1 fl. oz. Joy Ultra dish soap in 1 gallon of water was used to flush surviving larvae 19 days after treatment.

[7] = system: Masked chafer (Cyclocephala spp., CYCCSP); assay: Turf trial against masked chafer grubs (Kentucky Bluegrass, natural infestation), larvae counts; details: for % Control / % activity: alpha-cypermethrin 95, dinotefuran 600, combination 95 + 380 g ai/ha; for Masked Chafer Grub Counts (average per treatment per sample, per 1 sq. ft.): 62 days after treatment, alpha-cypermethrin 95, dinotefuran 600, combination 95 + 380 g ai/hectare
Procedure: as §1
The trial was conducted with Kentucky Bluegrass as main turf variety, with a natural infestation of masked chafer grubs. Treatments were arranged in a randomized complete block design and replicated four times in plots measuring 24 ft^2.
Treatments were applied in 813 liter/hectare spray volume.
White grub control was determined by larvae counts 62 days after treatment. A sod cutter cut a strip down the center of each replicate and a shovel cut the stirp into a small square in the middle of each plot. The number of larvae in each 1 sq. ft. were counted.

[8] = system: Japanese beetle grub (Popillia japonica, POPIJA); assay: Turf plot trial against Japanese beetle grubs, grub counts in soil cores; details: 85 DAT; for % Control / % activity: alpha-cypermethrin 95, dinotefuran 600, combination 95 + 380 g ai/ha; for Japanese Beetle Grub Counts (average per treatment per sample): alpha-cypermethrin 95, dinotefuran 600, combination 95 + 380 g ai/hectare
Procedure: as §1
The trial was conducted in plots consisting of a mix of Poa pratensis (~10%)—Lolium perenne (~60%)—Festuca arundinacea (~10%), and Agrostis stolonifera (<10%). Treatments were arranged in a randomized complete block design and replicated four times. Each replicate consisted of 3 arenas (~150 in^2). Each replicate was contained within a turfgrass plot measuring 9 ft^2. Treatments were applied in 813 liter/hectare spray volume.
To obtain consistent densities of white grub larvae, Japanese beetles (Popillia japonica) were captured in pheromone traps and seeded into the arenas to mate and oviposit.
20 males and 20 females were placed into 8 inch diameter PVC arenas (height=6 inch). The arena was driven 1 inch into the ground and fit with a mesh covering (324 openings/in2) to prevent beetles from escaping. After 3 days, the mesh coverings were removed, beetles removed, and 40 new beetles (20 males and 20 females) were placed into the arenas, followed by a third introduction. Nineteen days after the initial infestation date, the arenas were dismantled, and the turf was maintained as normal. Turf paint was used to mark the edges of turf where the arenas were located and reapplied as necessary.
White grub suppression was assessed 85 DAT by comparing the densities of grubs in treated and untreated plots. Three soil cores (total area=150 in2) were removed from each plot where the arenas were located using a large golf course cup cutter. Core soils were examined visually, by breaking the soil over a tray and looking for grubs (while in the field). The number of white grubs was pooled for the arenas in each replicate. Japanese beetle larvae present at time of evaluation (98.4%) were a mix of 2nd (42%) and 3rd (58%) instars.

[9] = 28 DAT, calculated from solo rates 95 and 600 g ai/ha

SMILES | % Control / % activity ([1]; 28 DAT) [%] | Nymph Counts (average number of Chinch bug nymphs per treatment per sample) [1] | % Control / % activity ([2]; 28 DAT) [%] | Fall Armyworm worm Counts (average per treatment per sample, 1-sq-ft) [2] | % Control / % activity ([3]; 4 DAT) [%] | Masked Chafer grub counts (average live grubs per treatment per sample) [3] | % Reduction / % activity ([4]; 5 DAT) [%] | Fall Armyworm damage (%) (average feeding damage) [4] | % Control / % activity ([5]; 7 DAT) [%] | Sod Webworm Counts (average number of larvae per treatment per sample) [5] | % Control / % activity ([6]; 19 DAT) [%] | Black Cutworm Counts (average surviving larvae per treatment per sample, 10 larvae/plot) [6] | % Control / % activity ([7]; 62 DAT) [%] | Masked Chafer Grub Counts (average per treatment per sample, per 1 sq. ft.) [7] | % Control / % activity [8] [%] | Japanese Beetle Grub Counts (average per treatment per sample) [8] | also measured
CC1(C)C(C=C(Cl)Cl)C1C(=O)OC(C#N)c1cccc(Oc2ccccc2)c1 (racemic) [Alpha-cypermethrin, racemate comprising (R)-α-cyano-3-phenoxybenzyl (1S, 3S)-3-(2,2-dichlorovinyl)-2,2-dimethylcyclopropanecarboxy late; (S)-α-cyano-3-phenoxybenzyl (1R, 3R) (2,2-dichlorovinyl)-2,2-dimethylcyclopropanecarboxylate] | 81 | 6.0 | 57 | 1.39 | 18 | 18.5 | 94 | 1.25 | 57 | 2.5 | 80 | 1.75 | 91 | 0.25 | 0 | 2.25 | expected % activity (Colby) [1, 9]: 96%; expected % activity (Colby) [2, 9]: 58%; expected % activity (Colby) ([3]; 4 DAT, calculated from solo rates 95 and 600 g ai/ha): 29%; expected % activity (Colby) ([4]; 5 DAT, calculated from solo rates 95 and 600 g ai/ha): 98%; expected % activity (Colby) ([5]; 7 DAT, calculated from solo rates 47.5 and 600 g ai/ha): 87%; expected % activity (Colby) ([6]; 19 DAT, calculated from solo rates 47.5 and 600 g ai/ha): 83%; expected % activity (Colby) ([7]; 62 DAT, calculated from solo rates 95 and 600 g ai/ha): 97%; expected % activity (Colby) ([8]; calculated from solo rates 95 and 600 g ai/ha): 0%
CNC(=N[N+](=O)[O-])NCC1CCOC1 (racemic) [Dinotefuran, (RS)-1-methyl-2-nitro-3-(tetrahydro-3-furylmethyl) guanidine] | 81 | 5.8 | 2 | 3.17 | 13 | 19.5 | 75 | 5.00 | 60 | 2.3 | 17 | 7.25 | 64 | 1.00 | 0 | 2.00 | 
